Tests used:
Type in all cases: in vivo, human
[1] = Moderate-Caffeine User Follow-Up, Profile of Mood States (POMS) survey; set-up: Fatigue / Vigor / Confusion / TMD / Tension / Esteem-related Affect: scale not given here; settings: moderate-caffeine users; for TMD: total mood disturbance
Source text: (§1) The study included subjective tests (POMS and product questions) only. […] There were 7 male and 6 female participants with an average age of 39.5 years.

[2] = Low-Caffeine User Clinical Study, Profile of Mood States (POMS) survey; settings: low-caffeine users
Source text: This study included subjective (POMS and product questions) and objective (CNSVS) tests.

[3] = Moderate-Caffeine User Follow-Up, product questions (statement agreement)
Source text: as §1

[4] = Moderate-Dose Caffeine Cohort (mean 338 mg/d), n = 12-13
[5] = Statement Agreement, Moderate-Dose Caffeine Cohort (mean 338 mg/d), n = 12-13

Cn1c(=O)c2c(ncn2C)n(C)c1=O [Caffeine, caffeine]
Confusion ([1]; n = 12-13, Post): 1.17 ± 2.92
Depression ([1]; n = 12-13, Post): 1.17 ± 4.04
Esteem-related Affect ([1]; n = 12-13, Post): 15.92 ± 3.15
Fatigue ([1]; n = 12-13, Post): 2.25 ± 3.02
Tension ([1]; n = 12-13, Post): 1.83 ± 3.54
Fatigue ([1]; n = 12-13, Post, listed as caffeine): did not relieve
Confusion ([1]; n = 12-13, Pre): 2.25 ± 2.38
Depression ([1]; n = 12-13, Pre): 1.50 ± 3.45
Esteem-related Affect ([1]; n = 12-13, Pre): 14.42 ± 3.23
Fatigue ([1]; n = 12-13, Pre): 5.58 ± 4.70
Tension ([1]; n = 12-13, Pre): 3.00 ± 2.73
Vigor ([1]; n = 12-13, Pre): 4.25 ± 2.93
TMD ([1]; n = 12-13, Post): −17.17 ± 17.69
TMD ([1]; n = 12-13, Pre): −4.92 ± 13.92
Anger ([2]; n = 30, Post): 0.90
Confusion ([2]; n = 30, Post): 1.20
Depression ([2]; n = 30, Post): 0.60
Esteem-related Affect ([2]; n = 30, Post): 14.63
Fatigue ([2]; n = 30, Post): 2.77
Tension ([2]; n = 30, Post): 2.80
Vigor ([2]; n = 30, Post): 7.27
Anger ([2]; n = 30, Pre): 1.55
Confusion ([2]; n = 30, Pre): 2.93
Depression ([2]; n = 30, Pre): 1.79
Esteem-related Affect ([2]; n = 30, Pre): 13.59
Fatigue ([2]; n = 30, Pre): 5.66
Tension ([2]; n = 30, Pre): 4.48
Vigor ([2]; n = 30, Pre): 5.69
TMD ([2]; total mood disturbance, n = 30, Post): −13.63
I am in a better mood after having taken the product, % Top 2 Box [3, 4]: 42%
I had no trouble recalling [things] after taking the product, % Top 2 Box [3, 4]: 58%
I was better able to focus after taking the product, % Top 2 Box [3, 4]: 58%
I was more alert after taking the product, % Top 2 Box [3, 4]: 58%
The product enhanced my ability to pay attention, % Top 2 Box [3, 4]: 58%
The product improved my energy levels, % Top 2 Box [3, 4]: 67%
I am in a better mood after having taken the product, Scores [3, 5]: 3.33
I had no trouble recalling [things] after taking the product, Scores [3, 5]: 3.67
I was better able to focus after taking the product, Scores [3, 5]: 3.25
I was more alert after taking the product, Scores [3, 5]: 3.67
The product enhanced my ability to pay attention, Scores [3, 5]: 3.50
The product improved my energy levels, Scores [3, 5]: 3.75
performance of treatment arms among those with moderate caffeine intake ([3]; moderate-caffeine users): performed better

From patent US20250352600A1, “DIETARY SUPPLEMENTS FOR BRAIN HEALTH” (Melaleuca, Inc., priority 2024, published 2025)
